Experimental data from patent US8916498B2, “Safening 6-(trisubstituted phenyl)-4-amino-2-pyridinecarboxylate herbicide injury on direct seeded and transplanted paddy rice” (priority 2008, dated 2014).

Key:
ORYSA (rice) = test: Postemergence herbicidal safening in direct seeded rice, visual injury; conditions: for ‘M202’ ORYSA Visual Injury (%) Obs: Safener Alone, 560 g ai/ha; for ‘M202’ ORYSA Visual Injury (%) Obs / Visual Injury (%) ‘Lemont’ ORYSA Obs: after 3 weeks
Text: A=observed efficacy of active ingredient A at the same concentration as used in the mixture.
B=observed efficacy of active ingredient B at the same concentration as used in the mixture.

ECHCO = test: Postemergence herbicidal safening in direct seeded rice, visual injury on weed; assay type: in vivo; conditions: alone, after 3 weeks
CYPDI = test: as above; assay type: in vivo; conditions: alone, after 3 weeks
SEBEX = test: as above; assay type: in vivo; conditions: alone, after 3 weeks
[1] = alone, 8.75 g ae/ha, after 3 weeks (Table 14)
[2] = No safener, 35 g ai/ha, after 3 weeks (Table 13)
[3] = alone, 70 g ae/ha, after 3 weeks (Table 14)

For `C#CCOC(=O)c1nc(-c2ccc(Cl)c(OC)c2F)cc(N)c1Cl` [Compound 1 Propargyl Ester], the “ORYSA Visual Injury (%) ‘Cheniere’ Obs” value (ORYSA (rice); [1]) was 55%, the “ORYSA Visual Injury (%) ‘Clearfield’ Obs” value (ORYSA (rice); [1]) was 50% and the “ORYSA Visual Injury (%) ‘Cocodrie’ Obs” value (ORYSA (rice); [1]) was 35%. For the same compound, the “ORYSA Visual Injury (%) ‘Lemont’ Obs” value (ORYSA (rice); [1]) was 30%, the “ORYSA Visual Injury (%) ‘M202’ Obs” value (ORYSA (rice); [1]) was 55% and the “ORYSA Visual Injury (%) ‘Wells’ Obs” value (ORYSA (rice); [1]) was 10%.

For `CCCCOC(=O)c1nc(-c2ccc(Cl)c(OC)c2F)cc(N)c1Cl` [Compound 1 n-Butyl Ester], the “ORYSA Visual Injury (%) ‘Cheniere’ Obs” value (ORYSA (rice); [2]) was 25%, the “ORYSA Visual Injury (%) ‘Cocodrie’ Obs” value (ORYSA (rice); [2]) was 20% and the “ORYSA Visual Injury (%) ‘M202’ Obs” value (ORYSA (rice); [2]) was 28%.

With `CCCOC(=O)c1nc(-c2ccc(Cl)c(OC)c2F)cc(N)c1Cl` [Compound 1 n-Propyl Ester] the “ORYSA Visual Injury (%) ‘Cheniere’ Obs” value (ORYSA (rice); [3]) was 45%, the “ORYSA Visual Injury (%) ‘Clearfield’ Obs” value (ORYSA (rice); [3]) was 60% and the “ORYSA Visual Injury (%) ‘Cocodrie’ Obs” value (ORYSA (rice); [3]) was 45%. The “ORYSA Visual Injury (%) ‘Lemont’ Obs” value (ORYSA (rice); [3]) was 35%, the “ORYSA Visual Injury (%) ‘M202’ Obs” value (ORYSA (rice); [3]) was 55% and the “ORYSA Visual Injury (%) ‘Wells’ Obs” value (ORYSA (rice); [3]) was 15%.

`Cc1ccc(NC(=O)NC(C)(C)c2ccccc2)cc1` [Daimuron, N-(4-methylphenyl)-N′-(1-methyl-1-phenylethyl)-urea] was tested, and the “‘M202’ ORYSA Visual Injury (%) Obs” value (ORYSA (rice)) was 3.3%, the “Visual Injury (%) ‘Lemont’ ORYSA Obs” value (ORYSA (rice); alone, 35 g ai/ha) was 0% and the “Visual Injury (%) ‘Lemont’ ORYSA Obs” value (ORYSA (rice); alone, 70 g ai/ha) was 0%. For the same compound, the “Visual Injury (%) ‘Lemont’ ORYSA Obs” value (ORYSA (rice); alone, 140 g ai/ha) was 0%, the “Visual Injury (%) ‘Lemont’ ORYSA Obs” value (ORYSA (rice); alone, 280 g ai/ha) was 0% and the “Visual Injury (%) ECHCO Obs” value (ECHCO; 35 g ai/ha) was 5%. The “Visual Injury (%) ECHCO Obs” value (ECHCO; 70 g ai/ha) was 0%, the “Visual Injury (%) ECHCO Obs” value (ECHCO; 140 g ai/ha) was 0% and the “Visual Injury (%) ECHCO Obs” value (ECHCO; 280 g ai/ha) was 10%. The “Visual Injury (%) CYPDI Obs” value (CYPDI; 35 g ai/ha) was 0%, the “Visual Injury (%) CYPDI Obs” value (CYPDI; 70 g ai/ha) was 0% and the “Visual Injury (%) CYPDI Obs” value (CYPDI; 140 g ai/ha) was 0%. The “Visual Injury (%) CYPDI Obs” value (CYPDI; 280 g ai/ha) was 0%, the “Visual Injury (%) SEBEX Obs” value (SEBEX; 35 g ai/ha) was 0% and the “Visual Injury (%) SEBEX Obs” value (SEBEX; 70 g ai/ha) was 0%. The “Visual Injury (%) SEBEX Obs” value (SEBEX; 140 g ai/ha) was 0% and the “Visual Injury (%) SEBEX Obs” value (SEBEX; 280 g ai/ha) was 0%.

For `C=CCN(CC=C)C(=O)C(Cl)Cl` [Dichlormid], the “ORYSA Visual Injury (%) ‘Cheniere’ Obs” value (ORYSA (rice); safener 140 g ai/ha alone) was 0%, the “ORYSA Visual Injury (%) ‘Cocodrie’ Obs” value (ORYSA (rice); safener 140 g ai/ha alone) was 0% and the “ORYSA Visual Injury (%) ‘Lemont’ Obs” value (ORYSA (rice); safener 140 g ai/ha alone) was 0%.

For `CC(C)(SC(=O)N1CCCCC1)c1ccccc1` [Dimepiperate], the “ORYSA Visual Injury (%) ‘M202’ Obs” value (ORYSA (rice); safener 280 g ai/ha alone) was 10%.

For `CCOC(=O)c1nc(C(Cl)(Cl)Cl)n(-c2ccc(Cl)cc2Cl)n1` [Fenchlorazole-ethyl], the “‘M202’ ORYSA Visual Injury (%) Obs” value (ORYSA (rice)) was 0.0%.

In the case of `FC(F)(F)C(=NOCC1OCCO1)c1ccc(Cl)cc1` [Fluxofenim, 1-(4-chlorophenyl)-2,2,2-trifluoroethanone O-(1,3-dioxolan-2-ylmethyl)oxime], the “‘M202’ ORYSA Visual Injury (%) Obs” value (ORYSA (rice)) is reported as 3.3%.

For `CC1(C)OC(c2ccco2)CN1C(=O)C(Cl)Cl` (centres unmarked) [Furilazole, 3-(dichloroacetyl)-5-(2-furanyl)-2,2-dimethyl-oxazolidine], the “‘M202’ ORYSA Visual Injury (%) Obs” value (ORYSA (rice)) was 3.3% and the “ORYSA Visual Injury (%) ‘Lemont’ Obs” value (ORYSA (rice); safener 70 g ai/ha alone) was 0%.

In the case of `N#C/C(=N\OCC1OCCO1)c1ccccc1` [Oxabetrinil, (αZ)-α-[(1,3-dioxolan-2-yl)methoxyimino]-benzeneacetonitrile], the “Visual Injury (%) ‘Lemont’ ORYSA Obs” value (ORYSA (rice); alone, 35 g ai/ha) is reported as 0%, the “Visual Injury (%) ‘Lemont’ ORYSA Obs” value (ORYSA (rice); alone, 70 g ai/ha) is reported as 15% and the “Visual Injury (%) ‘Lemont’ ORYSA Obs” value (ORYSA (rice); alone, 140 g ai/ha) is reported as 0%. The “Visual Injury (%) ‘Lemont’ ORYSA Obs” value (ORYSA (rice); alone, 280 g ai/ha) was 10%, the “Visual Injury (%) ECHCO Obs” value (ECHCO; 35 g ai/ha) was 0% and the “Visual Injury (%) ECHCO Obs” value (ECHCO; 70 g ai/ha) was 0%. The “Visual Injury (%) ECHCO Obs” value (ECHCO; 140 g ai/ha) was 0%, the “Visual Injury (%) ECHCO Obs” value (ECHCO; 280 g ai/ha) was 0% and the “Visual Injury (%) CYPDI Obs” value (CYPDI; 35 g ai/ha) was 0%. The “Visual Injury (%) CYPDI Obs” value (CYPDI; 70 g ai/ha) was 0%, the “Visual Injury (%) CYPDI Obs” value (CYPDI; 140 g ai/ha) was 0% and the “Visual Injury (%) CYPDI Obs” value (CYPDI; 280 g ai/ha) was 0%. The “Visual Injury (%) SEBEX Obs” value (SEBEX; 35 g ai/ha) was 0%, the “Visual Injury (%) SEBEX Obs” value (SEBEX; 70 g ai/ha) was 0% and the “Visual Injury (%) SEBEX Obs” value (SEBEX; 140 g ai/ha) was 0%. The “Visual Injury (%) SEBEX Obs” value (SEBEX; 280 g ai/ha) was 0%.
